Source: the supplement of paper PMC11208160

Test: recombinant barcode read abundance after kanamycin selection (control-corrected) (log10(CPM+1)); higher = more efficient recombination; sequences stand for … in AGTGCAGAGAAAATCGGCCAGTTTTCTCTGCCTGCAGTCCGCATGCCGT…AGATTTATGCAGCGGACTGCCTTTCTCCCAAAGTGATAAACCGGACAGTATCATGGACCGGTTTTCCCGGTAATCCGTATTTGCAAGGTTGGTTTCACT; site = the 11-nt target
Procedure, shortened: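 Duplicate cultures were plated either on chloramphenicol/ampicillin LB agar, serving as control, or on chloramphenicol/ampicillin/kanamycin with 0.1 mM IPTG. These came from a pooled E. coli library co-electroporated with a donor plasmid, each member pairing a target with an IS621 bridge RNA target-binding loop. Recombination efficiency equals averaged, control-corrected counts per million of recombinant-junction barcodes. It is listed as log10(CPM+1).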
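Further: IS621 recombinase and bridge RNA in Escherichia coli cells.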

Row | Sequence | recombinant barcode read abundance (log10)
1 | CCTTGTTCTTGGGTTCTAACCTGTTGCTA (site TCGTGTTCTTA) | 0.149
2 | CGAAATGCTTGGGTTCTAACCTGTTGCCT (site CGAAATGCTAG) | 0.798
3 | CGAAATGCTTGGGTTCTAACCTGTTGCCT (site CGCAATGCTAG) | 0.0184
4 | CGAAATGCTTGGGTTCTAACCTGTTGCCT (site CGGAATGCTAG) | 0.035
5 | CGAAATGCTTGGGTTCTAACCTGTTGCCT (site CGTAATGCTAG) | 0.77
6 | CGAACGACTTGGGTTCTAACCTGTTGCTT (site CGAACGACTAA) | 0.0324
7 | CGAACGACTTGGGTTCTAACCTGTTGCTT (site CGAACGACTAG) | 0.113
8 | CGAACTACTTGGGTTCTAACCTGTTGCCT (site CGAACTACTAA) | 0.0404
9 | CGAACTACTTGGGTTCTAACCTGTTGCCT (site CGAACTACTAC) | 0.311
10 | CGAACTACTTGGGTTCTAACCTGTTGCCT (site CGAACTACTAG) | 0.0694
11 | CGAACTACTTGGGTTCTAACCTGTTGCCT (site CGAACTACTAT) | 0.316
12 | CGAATGTCTTGGGTTCTAACCTGTTGCGT (site CGAATGTCTAC) | 0.991
13 | CGAATGTCTTGGGTTCTAACCTGTTGCGT (site CGACTGCCTAC) | 0.0251
14 | CGACAGTCTTGGGTTCTAACCTGTTGCGT (site CGACAGTCTAC) | 2.41
15 | CGACAGTCTTGGGTTCTAACCTGTTGCGT (site CGGCAGTCTAC) | 0.153
16 | CGACCCTCTTGGGTTCTAACCTGTTGCCT (site AGACCCTCTAG) | 0.0358
17 | CGACCCTCTTGGGTTCTAACCTGTTGCCT (site CGACCCTCTAG) | 1.74
18 | CGACCCTCTTGGGTTCTAACCTGTTGCCT (site GGACCCTCTAG) | 0.17
19 | CGACCCTCTTGGGTTCTAACCTGTTGCCT (site TGACCCTCTAG) | 0.381
20 | CGACGAGCTTGGGTTCTAACCTGTTGCGG (site CCACGAGCTCC) | 0.352
21 | CGACGAGCTTGGGTTCTAACCTGTTGCGG (site CGACGAGCTCC) | 1.22
22 | CGAGATCCTTGGGTTCTAACCTGTTGCAT (site CGAGATCCTAT) | 1.29

Row | Sequence | recombinant barcode read abundance (log10)
23 | CGAGATCCTTGGGTTCTAACCTGTTGCAT (site CGAGGTACTAT) | 0
24 | CGAGATCCTTGGGTTCTAACCTGTTGCCT (site CGACATCCTAG) | 0.214
25 | CGAGATCCTTGGGTTCTAACCTGTTGCCT (site CGAGATCCTAG) | 0.678
26 | CGAGGTACTTGGGTTCTAACCTGTTGCAT (site CGAGATCCTAT) | 0.0262
27 | CGAGGTACTTGGGTTCTAACCTGTTGCAT (site CGAGGTACTAT) | 1.87
28 | CGATACACTTGGGTTCTAACCTGTTGCCG (site CGATACACTCG) | 0.571
29 | CGATACACTTGGGTTCTAACCTGTTGCCG (site CGATCCACTCA) | 0.052
30 | CGATCACCTTGGGTTCTAACCTGTTGCCT (site CGATCACCTAG) | 0.105
31 | CGATCACCTTGGGTTCTAACCTGTTGCCT (site TTCGGCTCTTA) | 0.665
32 | CGATCCACTTGGGTTCTAACCTGTTGCTG (site CGATACACTCG) | 0.16
33 | CGATCCACTTGGGTTCTAACCTGTTGCTG (site CGATCCACTCA) | 0.483
34 | CGATGGACTTGGGTTCTAACCTGTTGCTG (site AAGCTTGCTAG) | 0.0171
35 | CGATGGACTTGGGTTCTAACCTGTTGCTG (site CGATGGACTCA) | 1.81
36 | CGATTTCCTTGGGTTCTAACCTGTTGCCT (site CGATTTCCTAG) | 0.0837
37 | CGATTTCCTTGGGTTCTAACCTGTTGCCT (site CGATTTCCTAT) | 0.102
38 | CGCAATGCTTGGGTTCTAACCTGTTGCCT (site CGAAATGCTAG) | 0.125
39 | CGCAATGCTTGGGTTCTAACCTGTTGCCT (site CGCAATGCTAG) | 0.07
40 | CGCAATGCTTGGGTTCTAACCTGTTGCCT (site CGGAATGCTAG) | 0.469
41 | CGCAATGCTTGGGTTCTAACCTGTTGCCT (site CGTAATGCTAG) | 0.322
42 | CGCAGCACTTGGGTTCTAACCTGTTGCCT (site AGCAGCACTAG) | 0.067
43 | CGCAGCACTTGGGTTCTAACCTGTTGCCT (site CGCAGCACTAG) | 0.63
44 | CGCCAGCCTTGGGTTCTAACCTGTTGCCT (site CGCCAGCCTAG) | 0.0113

Row | Sequence | recombinant barcode read abundance (log10)
45 | CGCCAGCCTTGGGTTCTAACCTGTTGCCT (site CGCCTGCCTAG) | 0
46 | CGCCCTTCTTGGGTTCTAACCTGTTGCCT (site CGCCCTTCTAG) | 0.0296
47 | CGCCCTTCTTGGGTTCTAACCTGTTGCCT (site TAAGGGACTTA) | 0.0823
48 | CGCCGTACTTGGGTTCTAACCTGTTGCCT (site CGACGTACTAG) | 0.264
49 | CGCCGTACTTGGGTTCTAACCTGTTGCCT (site CGCCGTACTAG) | 0.405
50 | CGCCGTACTTGGGTTCTAACCTGTTGCCT (site CGGCGTACTAG) | 0.349
51 | CGCCGTACTTGGGTTCTAACCTGTTGCCT (site CGTCGTACTAG) | 0.0659
52 | CGCCTCACTTGGGTTCTAACCTGTTGCCT (site CGCCTCACTAG) | 0.0456
53 | CGCCTCACTTGGGTTCTAACCTGTTGCCT (site CGCCTCCCTAG) | 0.152
54 | CGCCTCACTTGGGTTCTAACCTGTTGCCT (site CGCCTCGCTAG) | 0.166
55 | CGCCTCACTTGGGTTCTAACCTGTTGCCT (site CGCCTCTCTAG) | 0.0333
56 | CGCGAGTCTTGGGTTCTAACCTGTTGCTG (site CGCGAGTCTCA) | 0.254
57 | CGCGAGTCTTGGGTTCTAACCTGTTGCTG (site TAATTTGCTAG) | 0.142
58 | CGCGCCACTTGGGTTCTAACCTGTTGCCT (site CGCGCCACTAG) | 0.383
59 | CGCGCCACTTGGGTTCTAACCTGTTGCCT (site TAGCAGTCTGC) | 0.188
60 | CGCGCCTCTTGGGTTCTAACCTGTTGCCG (site CGCGCCTCTCG) | 0.0377
61 | CGCGCCTCTTGGGTTCTAACCTGTTGCCG (site GGCCCCTCTCG) | 0.362
62 | CGCGGGGCTTGGGTTCTAACCTGTTGCCT (site CGCGCGGCTAG) | 0.392
63 | CGCGGGGCTTGGGTTCTAACCTGTTGCCT (site CGCGGGGCTAG) | 0.662
64 | CGCGGTCCTTGGGTTCTAACCTGTTGCCT (site CGCGATCCTAG) | 0.305
65 | CGCGGTCCTTGGGTTCTAACCTGTTGCCT (site CGCGCTCCTAG) | 0.109
66 | CGCGGTCCTTGGGTTCTAACCTGTTGCCT (site CGCGGTCCTAG) | 0.0165

Row | Sequence | recombinant barcode read abundance (log10)
67 | CGCGGTCCTTGGGTTCTAACCTGTTGCCT (site CGCGTTCCTAG) | 0.084
68 | CGCTAGACTTGGGTTCTAACCTGTTGCCT (site CGCTAGACTAG) | 0.13
69 | CGCTAGACTTGGGTTCTAACCTGTTGCCT (site CGCTCGACTAG) | 0.0159
70 | CGCTAGACTTGGGTTCTAACCTGTTGCCT (site CGCTGGACTAG) | 0.0628
71 | CGCTAGACTTGGGTTCTAACCTGTTGCCT (site CGCTTGACTAG) | 0.052
72 | CGCTAGTCTTGGGTTCTAACCTGTTGCCT (site CGCTAGTCTAG) | 0.451
73 | CGCTAGTCTTGGGTTCTAACCTGTTGCCT (site CGCTCGTCTAG) | 0.22
74 | CGCTAGTCTTGGGTTCTAACCTGTTGCCT (site CGCTGGTCTAG) | 0.285
75 | CGCTAGTCTTGGGTTCTAACCTGTTGCCT (site CGCTTGTCTAG) | 0.0462
76 | CGCTCATCTTGGGTTCTAACCTGTTGCCT (site CGATCATCTAG) | 0.214
77 | CGCTCATCTTGGGTTCTAACCTGTTGCCT (site CGCTCATCTAG) | 0.0416
78 | CGCTCATCTTGGGTTCTAACCTGTTGCCT (site CGGTCATCTAG) | 0.154
79 | CGCTCATCTTGGGTTCTAACCTGTTGCCT (site CGTTCATCTAG) | 0.211
80 | CGCTCGACTTGGGTTCTAACCTGTTGCCT (site CGCTAGACTAG) | 0.596
81 | CGCTCGACTTGGGTTCTAACCTGTTGCCT (site CGCTCGACTAG) | 0.0944
82 | CGCTCGACTTGGGTTCTAACCTGTTGCCT (site CGCTGGACTAG) | 0.188
83 | CGCTCGACTTGGGTTCTAACCTGTTGCCT (site CGCTTGACTAG) | 0.0207
84 | CGCTGGCCTTGGGTTCTAACCTGTTGCTT (site CGCTGACCTAA) | 0.033
85 | CGCTGGCCTTGGGTTCTAACCTGTTGCTT (site CGCTGCCCTAA) | 0.112
86 | CGCTGGCCTTGGGTTCTAACCTGTTGCTT (site CGCTGGCCTAA) | 0.162
